# Measured values: US9067894B1, “Compound, composition, and method of activating GIRK potassium channel and use of same for treating conditions of interest” (Vanderbilt University, priority 2013, dated 2015)
# What was measured:
# Type in all cases: cell-based
# GIRK1/4 = target: T1, GIRK1/4 (Homo sapiens, UniProt P48544+P48549); experiment: Thallium flux assay protocol (Examples 2 and 3), GIRK1/GIRK4 HEK-293 cells; conditions: for GIRK1/4 efficacy (activator): standardized to 2 (ML297) = 100%; for EC50: triplicate determinations
# T1 construct: expressed in transfected cells; host or cells: HEK-293
# T1 sequence (P48549 1-501): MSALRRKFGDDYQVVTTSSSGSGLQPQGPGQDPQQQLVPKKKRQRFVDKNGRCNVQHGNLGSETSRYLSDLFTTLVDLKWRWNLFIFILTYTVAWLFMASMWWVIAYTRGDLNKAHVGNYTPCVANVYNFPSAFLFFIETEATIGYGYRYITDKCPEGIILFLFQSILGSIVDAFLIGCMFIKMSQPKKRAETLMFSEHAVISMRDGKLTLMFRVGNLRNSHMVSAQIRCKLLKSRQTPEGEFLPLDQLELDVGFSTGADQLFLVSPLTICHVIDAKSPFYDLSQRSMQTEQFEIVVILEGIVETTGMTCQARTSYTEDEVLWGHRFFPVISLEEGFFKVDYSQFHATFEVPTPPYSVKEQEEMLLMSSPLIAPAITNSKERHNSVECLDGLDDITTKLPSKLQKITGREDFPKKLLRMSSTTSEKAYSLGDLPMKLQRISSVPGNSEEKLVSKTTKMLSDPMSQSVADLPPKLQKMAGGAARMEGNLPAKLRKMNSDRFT
# T1 sequence (P48544 1-419): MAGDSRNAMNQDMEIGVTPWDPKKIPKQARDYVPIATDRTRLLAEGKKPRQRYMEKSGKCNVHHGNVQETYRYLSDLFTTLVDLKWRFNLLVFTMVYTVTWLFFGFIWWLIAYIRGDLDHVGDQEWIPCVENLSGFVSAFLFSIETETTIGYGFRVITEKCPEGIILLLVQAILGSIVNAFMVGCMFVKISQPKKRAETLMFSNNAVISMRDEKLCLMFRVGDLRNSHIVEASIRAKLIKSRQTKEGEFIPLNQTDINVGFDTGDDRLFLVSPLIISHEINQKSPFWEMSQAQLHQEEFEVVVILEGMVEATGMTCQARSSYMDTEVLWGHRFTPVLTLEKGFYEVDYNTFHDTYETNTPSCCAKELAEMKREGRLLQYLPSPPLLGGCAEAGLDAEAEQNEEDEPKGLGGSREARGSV
# Protocol: (§1) Compounds were dissolved in DMSO, transferred to 384-well polypropylene plates, and serially diluted in DMSO using and Agilent Bravo (11-points, threefold dilutions). Serially diluted plates were dispensed to daughter plates using a Labcyte Echo555 and diluted to twofold over their target assay concentration with 20 mM HEPES-buffered (pH 7.4) Hanks Balanced Salt Solution (HBSS), hereafter referred to as Assay Buffer, using a Thermo Fisher Combi. Twenty-thousand HEK-293 cells/well stably transfected with the ion channel subunits of interest (e.g., GIRK1/GIRK2, GIRK1/GIRK4) were plated into 384-well, black-walled, clear-bottom, amine-coated coated plates in 20 LL/well alpha-minimal essential medium (MEM) supplemented with 10% (v/v) fetal bovine serum and incubated overnight in a 5% CO2 incubator at 37° C. Cell culture medium was removed from cell plates and replaced with 20 LL/well Assay Buffer. Twenty microliters/well of 0.5 LM of the thallium-sensitive dye, Thallos-AM (TEFlabs, Austin Tex.) in Assay Buffer was added to cell plates. Cell plates were incubated for 60 min at room temperature and then dye-loading solution was removed from cell plates and replaced with 20 LL/well Assay Buffer. Dye loaded and washed cell plates were transferred to a Hamamatsu FDSS 6000 and a double-addition protocol was initiated. After 10s, 20 LL/well of 20 LM test compound in 0.2% DMSO and Assay Buffer was added. After 4 min 10 LL/well of a 5× sodium bicarbonate-based thallium stimulus buffer (20 mM HEPES pH 7.4, 135 mM NaHCO3, 2 mM CaSO4, 1 mM MgSO4, 5 mM glucose, 12 mM Tl2SO4) was added and 2 more minutes of data collection followed. Fluorescence data were collected at 1 Hz. Data analysis: Waveform signals (fluorescence intensity vs time normalized by dividing each fluorescence value (F) by the initial fluorescence value for each trace (F0)) were reduced to single values by subtracting the average normalized waveform from vehicle control wells from each wave on the plate followed by obtaining the slope of the change in fluorescence immediately after the addition of the thallium stimulus. Slope values were normalized as a percentage of the slope obtained by the addition of a maximally effective concentration of the GIRK activator, ML297 (e.g., an efficacy value of 100% means that the compound's maximum apparent efficacy equals that of ML297). Curve fits for normalized slope values were obtained using a four-parameter logistic equation in the Excel add-in, XLfit.
# GIRK1/2 [1] = target: T2, GIRK1/2 (Homo sapiens, UniProt P48051+P48549); experiment: Thallium flux assay protocol (Examples 2 and 3), GIRK1/GIRK2 HEK-293 cells; design: expressed in transfected cells; host or cells: HEK-293; conditions: for GIRK1/2 efficacy (activator): standardized to 2 (ML297) = 100%; for EC50: triplicate determinations
# T2 sequence (P48549 1-501): T1 sequence (P48549 1-501)
# T2 sequence (P48051 1-423): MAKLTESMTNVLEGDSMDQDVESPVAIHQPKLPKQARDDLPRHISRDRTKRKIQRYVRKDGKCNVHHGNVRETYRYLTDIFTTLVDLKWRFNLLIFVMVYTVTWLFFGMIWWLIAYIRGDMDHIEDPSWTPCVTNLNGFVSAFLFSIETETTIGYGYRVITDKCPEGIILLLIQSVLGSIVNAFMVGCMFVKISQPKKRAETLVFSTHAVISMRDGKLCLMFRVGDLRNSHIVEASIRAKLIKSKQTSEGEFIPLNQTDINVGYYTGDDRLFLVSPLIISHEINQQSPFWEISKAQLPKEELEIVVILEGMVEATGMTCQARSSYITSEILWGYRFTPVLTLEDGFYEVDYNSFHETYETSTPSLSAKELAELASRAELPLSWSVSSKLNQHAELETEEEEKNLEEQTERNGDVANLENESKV
# Protocol: as §1, with “Slope values were normalized as a percentage of the slope obtained by the addition of a maximally effective concentration of the GIRK activator, ML297 (e.g., an efficacy value of 100% means that the compound's maximum apparent efficacy equals that of ML297).” left out
# GIRK1/2 [2] = target: T2, GIRK1/2; experiment: Thallium flux assay, HEK-293 cells expressing GIRK1/2; design: host or cells: HEK-293; conditions: confirmed GIRK activator of GIRK1/2, HTS hit; read-out: EC50
# Description: Cell Line Construction and Cell Culture. HEK-293 cells co-expressing human GIRK1/2 and rat mGlu8 were generated as previously described (Niswender et al., 2008). A HEK-293 cell line (ATCC, Manassas, Va.) expressing human GIRK1 and human GIRK2 was constructed by transfecting HEK-293 cells with GIRK1 and GIRK2 (Origene, Rockville, Md.) cloned into the pBudCE4.1 vector (Life Technologies, Carlsbad, Calif.) using FuGene 6 (Promega, Madison, Wis.) transfection reagent. Unless otherwise noted, other ion channel-expressing cells were prepared by transfecting HEK-293 cells with individual or combinations of subunits: GIRK1, pCMV6-A-BSD; GIRK2, pCMV6-A-puro; GIRK3, pCMV6-A-hygro; GIRK4, pCMV6-A-AC; Kv7.4, pIRESneo3. The Kir2.1 and hERG-expressing cell lines were made by transfecting T-REx-293 cells (Life Technologies, Carlsbad, Calif.) with Kir2.1 and Kv11.1, respectively, cloned into pcDNA5TO. Monoclonal cell lines were produced by limiting-dilution cloning of antibiotic-resistant cells and functional selection using the thallium flux assay described below. Unless otherwise noted, cells were maintained in Minimal Essential Medium, Alpha Medium (Mediatech, Manassas, Va.) supplemented with 10% fetal bovine serum (Sigma-Aldrich, Saint Louis, Mo.) and GlutaGro (Mediatech, Manassas, Va.), referred to henceforth as cell culture medium. […]
SMILES,GIRK1/4 efficacy (activator) (GIRK1/4),GIRK1/2 efficacy (activator) (GIRK1/2 [1]),"EC50 (GIRK1/4; Table 4, analogs 8)",other results
Cc1ccc(NC(=O)Cc2ccccc2Br)cc1S(=O)(=O)N(C)C [3a],114%,108%,–,–
Cc1cc(NC(=O)Nc2ccc(F)c(F)c2)n(Cc2ccccc2)n1 [5d],99%,87%,–,–
Cc1ccc(NC(=O)Nc2ccc(C(F)(F)F)cc2)cc1S(=O)(=O)N(C)C [6h],–,26%,–,"EC50 (GIRK1/2 [1]; Table 3, analogs 6 (ureas)): 15 µM"
COc1ccc(OC)c(NC(=O)Nc2ccc(C)c(S(=O)(=O)N(C)C)c2)c1 [6i],–,–,–,activity at GIRK1/4 (in words) (GIRK1/4): inactive; activity at GIRK1/2 (in words) (GIRK1/2 [1]): inactive
Cc1ccc(NC(=O)Nc2cccc(C#N)c2)cc1S(=O)(=O)N(C)C [6j],–,–,–,"EC50 (GIRK1/4; Table 3, analogs 6 (ureas)): 3.3 µM"
CC(C)(C)c1cccc(NC(=O)Cc2ccccc2Cl)c1 [8b],–,–,2.7 µM,"EC50 (GIRK1/2 [1]; Table 4, analogs 8): 5.9 µM"
O=C(Cc1ccccc1Cl)Nc1cccc(OC(F)F)c1 [8c],–,–,7.8 µM,–
O=C(Cc1ccccc1Cl)Nc1cc(Cl)cc(C(F)(F)F)c1 [8d],–,–,> 10 µM,"EC50 (GIRK1/2 [1]; Table 4, analogs 8): > 10 µM"
O=C(Cc1ccccc1Cl)Nc1ccc(Cl)c(C(F)(F)F)c1 [8e],17%,–,0.24 µM,activity at GIRK1/2 (in words) (GIRK1/2 [1]): inactive
O=C(Cc1ccccc1Cl)Nc1cccc(Cl)c1 [8g],22%,–,1.8 µM,"activity at GIRK1/4 (in words) (GIRK1/4): selective, partial GIRK1/4 activators"
Cc1cccc(NC(=O)Cc2ccccc2Cl)c1 [8i],–,–,–,activity at GIRK1/4 (in words) (GIRK1/4): inactive; activity at GIRK1/2 (in words) (GIRK1/2 [1]): inactive
Cc1cc(NC(=O)Nc2ccccc2)n(-c2ccccc2)n1 [CID736191],–,–,–,EC50 (GIRK1/2 [2]): ~1 µM
Cc1ccc(NC(=O)Cc2ccccc2Cl)cc1S(=O)(=O)N(C)C [compound 3],104%,110%,–,–
